In ChEMBL document CHEMBL3351985, “Prophylactic treatment of asthma by an ozone scavenger in a mouse model” (2015):
The source made the active and inactive calls. No cut-off for these calls is given here.

Assays:
[1] = organism: Mus musculus; experiment: Antiasthmatic activity in ovalbumin-sensitized BALB/c mouse allergy model assessed as reduction in perivascular inflammatory cell infiltration compound treated at 4 g through inhalation prior to ovalbumin challenge by hematoxylin eosin staining method relative to control; assay type: functional; design: scale not given: the % may be the effect or the level left
[2] = organism: Mus musculus; experiment: Antiasthmatic activity in ovalbumin-sensitized BALB/c mouse allergy model assessed as reduction in lung aldehyde level compound treated at 4 g through inhalation prior to ovalbumin challenge; assay type: functional, organism-based
[3] = organism: Mus musculus; experiment: Antiasthmatic activity in ovalbumin-sensitized BALB/c mouse allergy model assessed as reduction in occlusion of the airway diameter by mucus compound treated at 4 g through inhalation prior to ovalbumin challenge by hematoxylin eosin staining method relative to control; assay type: functional
[4] = organism: Mus musculus; experiment: Antiasthmatic activity in ovalbumin-sensitized BALB/c mouse allergy model assessed as reduction in neutrophil count compound treated at 4 g through inhalation prior to ovalbumin challenge (reference value: 43.1 /mm3); assay type: functional
[5] = organism: Mus musculus; experiment: Antiasthmatic activity in ovalbumin-sensitized BALB/c mouse allergy model assessed as reduction in BAL aldehyde level compound treated at 4 g through inhalation prior to ovalbumin challenge; assay type: functional, organism-based
[6] = organism: Mus musculus; experiment: Antiasthmatic activity in ovalbumin-sensitized BALB/c mouse allergy model assessed as reduction in eosinophil count compound treated at 4 g through inhalation prior to ovalbumin challenge (reference value: 11 /mm3); assay type: functional
[7] = organism: Mus musculus; experiment: Antiasthmatic activity in ovalbumin-sensitized BALB/c mouse allergy model assessed as reduction in peribronchial inflammatory cell infiltration compound treated at 4 g through inhalation prior to ovalbumin challenge by hematoxylin eosin staining method relative to control; assay type: functional; design: scale not given: the % may be the effect or the level left
[8] = organism: Mus musculus; experiment: Antiasthmatic activity in ovalbumin-sensitized BALB/c mouse allergy model assessed as reduction in sub-epithelial fibrosis compound treated at 4 g through inhalation prior to ovalbumin challenge by hematoxylin eosin staining method relative to control; assay type: functional; design: scale not given: the % may be the effect or the level left
[9] = organism: Mus musculus; experiment: Antiasthmatic activity in ovalbumin-sensitized BALB/c mouse allergy model assessed as reduction in epithelial cell mucus metaplasia compound treated at 4 g through inhalation prior to ovalbumin challenge by hematoxylin eosin staining method relative to control; assay type: functional
[10] = organism: Mus musculus; experiment: Antiasthmatic activity in ovalbumin-sensitized BALB/c mouse allergy model assessed as reduction in spleen tissue aldehyde level compound treated at 4 g through inhalation prior to ovalbumin challenge; assay type: functional, organism-based

Which results are given for C=C(C)[C@H]1CC=C(C)CC1 [D-LIMONENE]?
Activity [1]: 40%; Activity [2]: Active; fold change (FC) [3]: 2; Activity [4]: 29.8 /mm3; Activity [5]: Active; Activity [6]: 12.6 /mm3; Activity [7]: 40%; Activity [8]: 20%; fold change (FC) [9]: 5; Activity [10]: Active
